Three compounds from patent publication US5438052A, “Cephalosporin derivatives” (Hoffmann-La Roche Inc., priority 1991, dated 1995) can be followed below.

The structures appear in SMILES notation. Structures can show the parent of a compound that is named as a salt. Where two headings read alike, the source gives them in different places. Bounds are passed on as bounds.

One test has as its system P. aeruginosa MK1184. The test is described as follows: Minimum inhibitory concentration in vitro, agar dilution method. The following applies: Pseudomonas aeruginosa. The test is classed as cell-based. The source says:
(§1) 1. Minimum Inhibitory Concentration in vitro
(§2) The activities ascertained, minimum inhibitory concentration (MIC) in μg/ml, are compiled in Table 1 hereinafter: […]
A general note: In agar dilution, organisms are placed on agar that contains the substance at set levels.

The next test concerns E. cloacae 908SSi. Described as above. The test is classed as cell-based. The settings on record: Enterobacter cloacae.
Excerpt: as §1, §2

The test system of a further test is K. pneumoniae 418. Described as above. The following applies: Klebsiella pneumoniae. The test is classed as cell-based.
Excerpt: as §1, §2

A further test has as its system S. marcescens 69438. Described as above. The settings on record: Serratia marcescens. The test is classed as cell-based.
Excerpt: as §1, §2

The subject of the next test is S. aureus 6538. Described as above. The test is classed as cell-based. The following applies: Staphylococcus aureus.
Excerpt: as §1, §2

In test [1] the test system is E. coli 25922. Described as above. The test is classed as cell-based. The settings on record: Escherichia coli.
Excerpt: as §1, §2

Another test concerns P. mirabilis 2117. Described as above. The test is classed as cell-based. The settings on record: Proteus mirabilis.
Excerpt: as §1, §2

A further test relates to E. cloacae P99. The description is as above. The test is classed as cell-based. The following applies: Enterobacter cloacae.
Excerpt: as §1, §2

The test system of the next test is E. cloacae 908R. The description is as above. The test is classed as cell-based. The settings on record: Enterobacter cloacae.
Excerpt: as §1, §2

A further test has as its system S. pyogenes 15. The test is described as above. The test is classed as cell-based. The settings on record: Streptococcus pyogenes.
Excerpt: as §1, §2

A further test has as its system K. oxytoca 1082. Described as above. The test is classed as cell-based. The following applies: Klebsiella oxytoca.
Excerpt: as §1, §2

Another test has as its system P. aeruginosa 799/61. Described as above. The test is classed as cell-based. The following applies: Pseudomonas aeruginosa.
Excerpt: as §1, §2

The next test concerns P. aeruginosa 27853. The test is described as above. The test is classed as cell-based. The settings on record: Pseudomonas aeruginosa.
Excerpt: as §1, §2

Another test relates to P. aeruginosa BA. Described as above. The test is classed as cell-based. The settings on record: Pseudomonas aeruginosa.
Excerpt: as §1, §2

The next test relates to S. pneumoniae BA. The description is as above. The test is classed as cell-based. The settings on record: Streptococcus pneumoniae.
Excerpt: as §1, §2

The next test deals with C. freundii 902. Described as above. The following applies: Citrobacter freundii. The test is classed as cell-based.
Excerpt: as §1, §2

Another test concerns P. aeruginosa 799/WT. The description is as above. The test is classed as cell-based. The following applies: Pseudomonas aeruginosa.
Excerpt: as §1, §2

The subject of another test is P. vulgaris 1028. Described as above. The test is classed as cell-based. The settings on record: Proteus vulgaris.
Excerpt: as §1, §2

The test system of test [2] is Pseudomonas aeruginosa BA. The test is described as follows: Experimental systemic septicaemia in the mouse. The test is classed as in vivo. The following applies: sc, 96 h. On the procedure:
(§3) 2. Experimental systemic septicaemia in the mouse
(§4) An experimental systemic septicaemia was produced in albino mice weighing 16-20 g by intraperitoneally injecting into the experimental animals a sample of a dilute culture of the test organism which had been grown overnight. The sample administered is calculated such that the dosage administered is about 5-100 times greater than the dosage which is required to kill 50% of untreated experimental animals within 48 hours. The bacteria were injected as a suspension in the culture broth. Groups of 5 experimental animals each were used not only for the control, but also for the treatment for each dosage tested. The products in accordance with the invention were administered subcutaneously as a suspension in Tween 80 (2%), whereby the concentrations were chosen such that each experimental animal received 500 μl per administration. The respective concentrations were administered twice, namely 1 and 3 hours after the infection (in the case of P. aeruginosa three times, namely 1, 3 and 5 hours after the infection). The ED50 is that dosage which protects 50% of the experimental animals and was calculated by means of the Probit method on the basis of the survial rate after 4 days following the infection. The ED50 values in mg/kg s.c. (subcutaneous) for representatives of the class of substance in accordance with the invention are given in Table 2 hereinafter.

Test [3] deals with E. coli 25922. The test is described as follows: Experimental systemic septicaemia in the mouse. The test is classed as in vivo. The following applies: 96 h. On the procedure: as §3, §4

One may read the MIC as the least concentration at which growth counts as inhibited. Broadly, the ED50 is the dose that gives a 50% effect, or the effect in half of the subjects. Take `Nc1nc(/C(=N/OCS(=O)(=O)c2ccc(O)c(O)c2)C(=O)N[C@@H]2C(=O)N3C(C(=O)O)=C(CS(=O)(=O)c4ccc(O)c(O)c4)CS[C@H]23)cs1` [Example 22, (6R,7R)-7-[(Z)-2-(2-amino-4-thiazolyl)-2-[[(3,4-dihydroxysulphonyl)methoxy]imino]acetamido]-3-[[(3,4-dihydroxyphenyl)sulphonyl]methyl]-8-oxo-5-thia-1-azabicyclo[4.2.0]oct-2-ene-2-carboxylic acid sodium salt]: the MIC with P. aeruginosa MK1184 (P. aeruginosa MK1184, agar dilution, read-out: MIC) was over 32 µg/mL; with E. cloacae 908SSi (E. cloacae 908SSi, agar dilution, read-out: MIC), 16 µg/mL; with K. pneumoniae 418 (K. pneumoniae 418, agar dilution, read-out: MIC), 0.5 µg/mL; with S. marcescens 69438 (S. marcescens 69438, agar dilution, read-out: MIC), 16 µg/mL; in the test with S. aureus 6538 (S. aureus 6538, agar dilution, read-out: MIC), over 32 µg/mL; with E. coli 25922 [1] (E. coli 25922, agar dilution, read-out: MIC) it was 8 µg/mL. Besides, the MIC turned out to be 16 µg/mL with P. mirabilis 2117 (P. mirabilis 2117, agar dilution, read-out: MIC); 32 µg/mL against E. cloacae P99; 32 µg/mL with E. cloacae 908R (E. cloacae 908R, agar dilution, read-out: MIC); 16 µg/mL in the test on S. pyogenes 15 (S. pyogenes 15, agar dilution, read-out: MIC); 0.5 µg/mL with K. oxytoca 1082 (K. oxytoca 1082, agar dilution, read-out: MIC); 0.25 µg/mL in the test with P. aeruginosa 799/61 (P. aeruginosa 799/61, agar dilution, read-out: MIC). In addition, the MIC is 32 µg/mL in the test on P. aeruginosa 27853 (P. aeruginosa 27853, agar dilution, read-out: MIC); over 32 µg/mL with P. aeruginosa BA (P. aeruginosa BA, agar dilution, read-out: MIC); 16 µg/mL in the test with S. pneumoniae BA (S. pneumoniae BA, agar dilution, read-out: MIC); 16 µg/mL in the test on C. freundii 902 (C. freundii 902, agar dilution, read-out: MIC); 16 µg/mL with P. aeruginosa 799/WT (P. aeruginosa 799/WT, agar dilution, read-out: MIC); 16 µg/mL in the test on P. vulgaris 1028 (P. vulgaris 1028, agar dilution, read-out: MIC). Further, the ED50 was 1.8 mg/kg in test [2] (P. aeruginosa BA, albino mice, s.c. 1, 3 and 5 hours after infection, survival after 4 days, read-out: ED50); under 0.05 mg/kg with E. coli 25922 [3] (Escherichia coli, sc, E. coli 25922, albino mice, s.c. 1 and 3 hours after infection, survival after 4 days, read-out: ED50).
`Cc1cc(SCC2=C(C(=O)[O-])N3C(=O)[C@@H](NC(=O)/C(=N\OCS(=O)(=O)c4ccc(O)c(O)c4)c4csc(N)n4)[C@H]3SC2)n2nc(COC(=O)c3ccc(O)c(O)c3)nc2n1.[Na+]` [Example 7, (6R,7R)-7-[(Z)-2-(2-amino-4-thiazolyl)-2-[[[(3,4-dihydroxyphenyl)sulphonyl]methoxy]imino]acetamido]-3-[[[2-[[(3,4-dihydroxybenzoyl)oxy]methyl]-5-methyl-s-triazolo[1,5-a]pyrimidin-7-yl]thio]methyl]-8-oxo-5-thia-1-azabicyclo[4.2.0]oct-2-ene-2-carboxylic acid sodium salt (1:1)]: the MIC with P. aeruginosa MK1184 (MK1184) is under 0.1 µg/mL; with E. cloacae 908SSi (908SSI), 4 µg/mL; with K. pneumoniae 418 (418) it was under 0.1 µg/mL; against S. marcescens 69438 (69438), 0.12 µg/mL; in the test on S. aureus 6538 (6538) it was 32 µg/mL; against E. coli 25922 [1] (25922) it was under 0.1 µg/mL. For the same compound, the MIC with P. mirabilis 2117 (2117) was 0.12 µg/mL; in the test on E. cloacae P99 it was 1 µg/mL; in the test with E. cloacae 908R (908R), 2 µg/mL; against S. pyogenes 15 (15), 4 µg/mL; against K. oxytoca 1082 (1082), under 0.1 µg/mL; in the test on P. aeruginosa 799/61 (799/61), 0.25 µg/mL. Besides, the MIC with P. aeruginosa 27853 (27853) worked out at 1 µg/mL; against P. aeruginosa BA, 0.12 µg/mL; against S. pneumoniae BA, 2 µg/mL; against C. freundii 902 (902), 0.12 µg/mL; in the test on P. aeruginosa 799/WT (799/WT) it was 0.5 µg/mL; in the test with P. vulgaris 1028 (1028), 0.12 µg/mL. Besides, the ED50 in test [2] is 0.08 mg/kg; in the test on E. coli 25922 [3] (Escherichia coli, 25922, sc) it was under 0.3 mg/kg.
Take `Cc1cc(SCC2=C(C(=O)[O-])N3C(=O)[C@@H](NC(=O)/C(=N\OCS(=O)(=O)c4ccc(O)c(O)c4)c4csc(N)n4)[C@H]3SC2)n2nc(CNS(=O)(=O)c3ccc(O)c(O)c3)nc2n1.[Na+]` [Example 3, (6R,7R)-7-[(Z)-2-(2-amino-4-thiazolyl)-2-[[[(3,4-dihydroxyphenyl)sulphonyl]methoxy]imino]acetamido]-3-[[[2-[(3,4-dihydroxybenzenesulphonamido)methyl]-5-methyl-s-triazolo[1,5-a]pyrimidin-7-yl]thio]methyl]-8-oxo-5-thia-1-azabicyclo[4.2.0]oct-2-ene-2-carboxylic acid sodium salt (1:1)]: the MIC was under 0.1 µg/mL in the test with P. aeruginosa MK1184 (MK1184); 8 µg/mL against E. cloacae 908SSi (908SSI); under 0.1 µg/mL against K. pneumoniae 418 (418); 0.12 µg/mL with S. marcescens 69438 (69438); 32 µg/mL in the test on S. aureus 6538 (6538); under 0.1 µg/mL against E. coli 25922 [1] (25922). Moreover, the MIC with P. mirabilis 2117 (2117) was under 0.1 µg/mL; against E. cloacae P99, 0.5 µg/mL; in the test with E. cloacae 908R (908R) it was 1 µg/mL; against S. pyogenes 15 (15), 4 µg/mL; against K. oxytoca 1082 (1082), 0.25 µg/mL; in the test with P. aeruginosa 799/61 (799/61), under 0.1 µg/mL. Further, the MIC in the test with P. aeruginosa 27853 (27853) is 0.25 µg/mL; in the test with P. aeruginosa BA, under 0.1 µg/mL; in the test on S. pneumoniae BA, 2 µg/mL; with C. freundii 902 (902), 0.12 µg/mL; in the test with P. aeruginosa 799/WT (799/WT), 0.12 µg/mL; against P. vulgaris 1028 (1028), under 0.1 µg/mL. Besides, the ED50 in test [2] was found to be 0.04 mg/kg; in the test on E. coli 25922 [3] (Escherichia coli, 25922, sc) it was 0.1 mg/kg.
